From patent US20230348426A1, “OXOPYRROLIDINE FPR2 AGONISTS” (Bristol-Myers Squibb Company, priority 2020, published 2023)

Tests used:
human FPR2 = human FPR2 (Homo sapiens (Human), UniProt P25090); test: FPR2 cyclic adenosine monophosphate (cAMP) assay; format: cell-based; conditions: CHO cells overexpressing human FPR2; forskolin 5 µM; inhibition of cAMP production; read-out: hFPR2 cAMP2 EC50
How it was run: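 Inhibition of forskolin-driven (5 µM) cAMP, with 200 µM IBMX, measured in human FPR2-expressing CHO cells, 2,000 per well, 30 min at room temperature; compounds tested 0.020 nM to 100 µM in 1% DMSO. HTRF 665/590 ratio converted to cAMP via calibration curve, then 4-parameter fit.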

human FPR1 = human FPR1 (Homo sapiens (Human), UniProt P21462); test: FPR1 cyclic adenosine monophosphate (cAMP) assay; format: cell-based; conditions: CHO cells overexpressing human FPR1; forskolin 10 µM; inhibition of cAMP production; read-out: hFPR1 cAMP EC50
How it was run: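 Human FPR1-expressing CHO cells were used at 4,000 per well, with compound at 0.020 nM–100 µM in 1% DMSO. Potency came from a 4-parameter logistic fit.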

Sequence of human FPR2 (P25090 whole entry): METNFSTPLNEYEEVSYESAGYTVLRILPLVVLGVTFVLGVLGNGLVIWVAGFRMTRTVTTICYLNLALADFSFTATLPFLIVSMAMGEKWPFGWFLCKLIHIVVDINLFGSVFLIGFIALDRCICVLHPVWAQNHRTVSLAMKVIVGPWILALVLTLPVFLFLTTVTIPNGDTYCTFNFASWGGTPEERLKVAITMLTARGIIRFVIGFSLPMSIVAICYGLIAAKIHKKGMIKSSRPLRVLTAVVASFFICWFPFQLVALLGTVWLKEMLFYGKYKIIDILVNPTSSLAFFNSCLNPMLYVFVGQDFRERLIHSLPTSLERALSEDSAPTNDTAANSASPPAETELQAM
Sequence of human FPR1 (P21462 whole entry): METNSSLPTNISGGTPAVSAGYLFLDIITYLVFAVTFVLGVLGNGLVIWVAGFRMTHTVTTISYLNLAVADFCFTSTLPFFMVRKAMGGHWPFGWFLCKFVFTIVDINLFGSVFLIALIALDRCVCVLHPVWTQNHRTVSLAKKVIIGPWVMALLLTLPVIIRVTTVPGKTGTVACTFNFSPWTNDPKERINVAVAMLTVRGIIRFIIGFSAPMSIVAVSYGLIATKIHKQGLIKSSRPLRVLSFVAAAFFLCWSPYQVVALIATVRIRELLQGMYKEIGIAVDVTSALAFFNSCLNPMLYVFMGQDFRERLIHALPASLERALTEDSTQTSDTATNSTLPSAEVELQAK

SMILES	EC50 (human FPR2)	EC50 (human FPR1)
COCCn1cccc(N2C[C@@H](c3c(F)cc(OC)cc3F)[C@H](NC(=O)c3ccc(OC(C)C)cc3)C2=O)c1=O [Example 347]	110 nM	840 nM
COc1ccc([C@@H]2CN(c3cccn(CC(O)C(F)(F)F)c3=O)C(=O)[C@H]2NC(=O)c2ccc(OC(F)(F)F)cc2)cc1 (stereo partly shown) [Example 354]	3.2 nM	7 nM
O=C(N[C@@H]1C(=O)N(c2cccn(CC(O)C(F)(F)F)c2=O)C[C@H]1c1ccc(Cl)cc1)c1ccc(OC(F)(F)F)cc1 (stereo partly shown) [Example 355]	4.5 nM	4 nM
COc1cc(F)c([C@@H]2CN(c3c(C)ccn(CC(C)O)c3=O)C(=O)[C@H]2NC(=O)c2ccc(OC(F)F)cc2)c(F)c1 (stereo partly shown) [Example 360]	3.2 nM	18 nM
COc1cc(F)c([C@@H]2CN(c3c(C)ccn(CC(C)O)c3=O)C(=O)[C@H]2NC(=O)c2ccc(Cl)cc2)c(F)c1 (stereo partly shown) [Example 362]	0.1 nM	12 nM
COc1ccc([C@@H]2CN(c3cccn(CC(OC)C(F)(F)F)c3=O)C(=O)[C@H]2NC(=O)c2ccc(OC(F)(F)F)cc2)c(F)c1 (stereo partly shown) [Example 364]	2.3 nM	1 nM
COCCn1ccc(C)c(N2C[C@@H](c3ccc(OC)cc3)[C@H](NC(=O)c3ccc(Cl)cc3)C2=O)c1=O [Example 365]	2.6 nM	1 nM
COc1ccc([C@@H]2CN(c3c(C)ccn(CC(F)F)c3=O)C(=O)[C@H]2NC(=O)c2ccc(Cl)cc2)cc1 [Example 366]	3 nM	3 nM
COc1ccc([C@@H]2CN(c3c(C)ccn(CCO)c3=O)C(=O)[C@H]2NC(=O)c2ccc(OC(F)F)cc2)c(F)c1 [Example 367]	1.2 nM	3 nM
O=C(N[C@@H]1C(=O)N(c2cccn(CC(O)C(F)(F)F)c2=O)C[C@H]1c1ccc(Cl)cc1)c1ccc(OC(F)F)cc1 (stereo partly shown) [Example 368]	1.7 nM	86 nM
COc1ccc([C@@H]2CN(c3cccn(CC(O)C(F)(F)F)c3=O)C(=O)[C@H]2NC(=O)c2ccc(OC(F)F)cc2)cc1 (stereo partly shown) [Example 371]	1.9 nM	8 nM
COc1ccc([C@@H]2CN(c3c(C)ccn(CCO)c3=O)C(=O)[C@H]2NC(=O)c2ccc(OC(F)(F)F)cc2)c(F)c1 [Example 375]	1.6 nM	3 nM
COc1ccc([C@@H]2CN(c3c(C)ccn(CC(F)F)c3=O)C(=O)[C@H]2NC(=O)c2ccc(OC(F)F)cc2)c(F)c1 [Example 376]	0.4 nM	4 nM
COc1ccc([C@@H]2CN(c3c(C)ccn(CC(F)F)c3=O)C(=O)[C@H]2NC(=O)c2ccc(Cl)cc2)c(F)c1 [Example 377]	1.6 nM	5 nM
CCn1cncc(N2C[C@@H](c3c(F)cc(OC)cc3F)[C@H](NC(=O)c3ccc(Cl)cc3)C2=O)c1=O [Example 378]	4.6 nM	3800 nM
COc1cc(F)c([C@@H]2CN(c3c(C)ccn(CC(=O)N4CCOCC4)c3=O)C(=O)[C@H]2NC(=O)c2ccc(Cl)cc2)c(F)c1 [Example 379]	2.6 nM	320 nM
COc1ccc([C@@H]2CN(c3cccn(CC(OC)C(F)(F)F)c3=O)C(=O)[C@H]2NC(=O)c2ccc(Cl)cc2)c(F)c1 (stereo partly shown) [Example 380]	1.8 nM	3 nM
COc1ccc([C@@H]2CN(c3c(C)ccn(C(F)F)c3=O)C(=O)[C@H]2NC(=O)c2ccc(OC(F)(F)F)cc2)cc1 [Example 383]	5.5 nM	2 nM
COc1ccc([C@@H]2CN(c3c(C)ccn(C(F)F)c3=O)C(=O)[C@H]2NC(=O)c2ccc(OC(F)F)cc2)cc1 [Example 384]	1.9 nM	1 nM
COc1ccc([C@@H]2CN(c3c(C)ccn(CC4CC4)c3=O)C(=O)[C@H]2NC(=O)c2ccc(Cl)cc2)cc1 [Example 385]	7.1 nM	1 nM
COc1ccc([C@@H]2CN(c3c(C)ccn(CCC(F)(F)F)c3=O)C(=O)[C@H]2NC(=O)c2ccc(Cl)cc2)cc1 [Example 386]	2.4 nM	1 nM
COc1ccc([C@@H]2CN(c3c(C)ccn(CCC(F)(F)F)c3=O)C(=O)[C@H]2NC(=O)c2ccc(OC(F)F)cc2)cc1 [Example 387]	2.2 nM	1 nM
COCC(CO)n1ccc(C)c(N2C[C@@H](c3ccc(OC)cc3)[C@H](NC(=O)c3ccc(OC(F)F)cc3)C2=O)c1=O (stereo partly shown) [Example 389]	< 5 nM	< 5 nM
CCN1CCC(N2C[C@@H](c3c(F)cc(OC)cc3F)[C@H](NC(=O)c3ccc(OC(F)F)cc3)C2=O)C1=O (stereo partly shown) [Example 390]	4.8 nM	76 nM
COc1ccc([C@@H]2CN(c3cccn(CC(C)O)c3=O)C(=O)[C@H]2NC(=O)c2ccc(Cl)cc2)cc1 (stereo partly shown) [Example 391]	5.5 nM	36 nM
COc1ccc([C@@H]2CN(c3cccn(CC(OC)C(F)(F)F)c3=O)C(=O)[C@H]2NC(=O)c2ccc(Cl)cc2)cc1 (stereo partly shown) [Example 393]	2.4 nM	2 nM
COc1ccc([C@@H]2CN(c3c(C)ccn(CCO)c3=O)C(=O)[C@H]2NC(=O)c2ccc(Cl)cc2)c(F)c1 [Example 394]	1.9 nM	11 nM
COc1ccc([C@@H]2CN(c3cccn(CC(C)OC)c3=O)C(=O)[C@H]2NC(=O)c2ccc(OC(F)(F)F)cc2)c(F)c1 (stereo partly shown) [Example 395]	2.4 nM	1 nM

Continued, values first:

EC50 (human FPR2)	EC50 (human FPR1)	SMILES
32 nM	830 nM	COCCn1cccc(N2C[C@@H](c3c(F)cc(OC)cc3F)[C@H](NC(=O)c3ccc(OC)cc3)C2=O)c1=O [Example 342]
33 nM	120 nM	COc1cc(F)c([C@@H]2CN(c3nc(C4CCOCC4)ccc3N(C)C)C(=O)[C@H]2NC(=O)c2ccc(OC(F)F)cc2)c(F)c1 [Example 343]
46 nM	2000 nM	COc1cc(F)c([C@@H]2CN(c3ncccc3C(F)(F)F)C(=O)[C@H]2NC(=O)c2ccc(Cl)nc2)c(F)c1 [Example 344]
89 nM	3.1 nM	CCn1cccc(N2C[C@@H](c3c(F)cc(OC)cc3F)[C@H](NC(=O)c3cccc(OC)c3)C2=O)c1=O [Example 345]
97 nM	1900 nM	COc1cc(F)c([C@@H]2CN(c3cncnc3O)C(=O)[C@H]2NC(=O)c2ccc(OC(F)F)cc2)c(F)c1 [Example 346]
111 nM	1400 nM	COc1cc(F)c([C@@H]2CN(c3nc(N4C[C@@H](C)N(C)[C@@H](C)C4)ccc3C3CC3)C(=O)[C@H]2NC(=O)c2ccc(OC(F)F)cc2)c(F)c1 [Example 348]
570 nM	5500 nM	COc1cc(F)c([C@@H]2CN(c3ncccc3C(F)(F)F)C(=O)[C@H]2NC(=O)C2CCc3cc(OC)ccc3C2)c(F)c1 (stereo partly shown) [Example 349]
0.9 nM	0.6 nM	COc1cc(F)c([C@@H]2CN(c3c(C)ccn(C4CCOC4)c3=O)C(=O)[C@H]2NC(=O)c2ccc(OC(F)(F)F)cc2)c(F)c1 (stereo partly shown) [Example 350]
8 nM	5 nM	COc1cc(F)c([C@@H]2CN(c3c(C)ccn(C4CC4)c3=O)C(=O)[C@H]2NC(=O)c2ccc(OC(F)F)cc2)c(F)c1 [Example 351]
4.8 nM	3 nM	COc1cc(F)c([C@@H]2CN(c3c(C)ccn(C4CC4)c3=O)C(=O)[C@H]2NC(=O)c2ccc(OC(F)(F)F)cc2)c(F)c1 [Example 352]
4.2 nM	17 nM	COCCN1CCC(N2C[C@@H](c3c(F)cc(OC)cc3F)[C@H](NC(=O)c3ccc(OC(F)(F)F)cc3)C2=O)C1=O (stereo partly shown) [Example 353]
3.5 nM	31 nM	COc1cc(F)c([C@@H]2CN(c3ccnn(CCO)c3=O)C(=O)[C@H]2NC(=O)c2ccc(OC(F)(F)F)cc2)c(F)c1 [Example 356]
3.1 nM	12 nM	CCn1nccc(N2C[C@@H](c3c(F)cc(OC)cc3F)[C@H](NC(=O)c3ccc(OC(F)(F)F)cc3)C2=O)c1=O [Example 357]
2 nM	14 nM	CCn1nccc(N2C[C@@H](c3c(F)cc(OC)cc3F)[C@H](NC(=O)c3ccc(OC(F)F)cc3)C2=O)c1=O [Example 358]
4.5 nM	6 nM	COc1cc(F)c([C@@H]2CN(c3c(C)ccn(CC(C)O)c3=O)C(=O)[C@H]2NC(=O)c2ccc(OC(F)(F)F)cc2)c(F)c1 (stereo partly shown) [Example 359]
1.7 nM	3 nM	COc1cc(F)c([C@@H]2CN(c3c(C)ccn(CC(C)O)c3=O)C(=O)[C@H]2NC(=O)c2ccc(OC(F)(F)F)cc2)c(F)c1 (stereo partly shown) [Example 361]
0.8 nM	3 nM	COCC(C(=O)N1C[C@@H]2C[C@H]1CO2)n1cccc(N2C[C@@H](c3c(F)cc(OC)cc3F)[C@H](NC(=O)c3ccc(OC(F)(F)F)cc3)C2=O)c1=O (stereo partly shown) [Example 363]
3.7 nM	1100 nM	CCn1cncc(N2C[C@@H](c3c(F)cc(OC)cc3F)[C@H](NC(=O)c3ccc(OC(F)F)cc3)C2=O)c1=O [Example 369]
3.7 nM	1400 nM	COCCn1cncc(N2C[C@@H](c3c(F)cc(OC)cc3F)[C@H](NC(=O)c3ccc(OC(F)F)cc3)C2=O)c1=O [Example 370]
2.8 nM	17 nM	CCN1CCC(N2C[C@@H](c3c(F)cc(OC)cc3F)[C@H](NC(=O)c3ccc(OC(F)(F)F)cc3)C2=O)C1=O (stereo partly shown) [Example 372]
12.5 nM	233 nM	CCn1ccc(F)c(N2C[C@@H](c3c(F)cc(OC)cc3F)[C@H](NC(=O)c3ccc(OC(F)F)cc3)C2=O)c1=O [Example 373]
4 nM	10 nM	COc1cc(F)c([C@@H]2CN(c3c(C)ccn(C(F)F)c3=O)C(=O)[C@H]2NC(=O)c2ccc(OC(F)F)cc2)c(F)c1 [Example 381]
